Measurements taken from patent US20140249139A1, “Quinazoline Derivatives” (NOVARTIS AG, priority 2011, published 2014).

Assays:
PI3K alpha = target: T1, PI3K alpha (Homo sapiens, UniProt P42336); assay: Enzymatic PI3K alpha isoform inhibition (lipid kinase activity, Kinase-Glo); type: biochemical; settings: enzymatic assay
T1 construct: for the p110-a subunit (with a deletion of the first 20 amino acids) are generated; His tag (C); made in house; host or cells: baculovirus BV1075; Tn5 (Trichoplusia ni) or TiniPro insect cells
Method: (§1) The components of the assay are added per well as follows:
(§2) IC50 is determined by a four parameter curve fitting routine that comes along with “excel fit”.
(§3) Yet alternatively, for an ATP depletion assay, compounds of the formula I to be tested are dissolved in DMSO and directly distributed into a white 384-well plate at 0.5 μl per well. To start the reaction, 10 μl of 10 nM PI3 kinase and 5 μg/ml 1-alpha-phosphatidylinositol (PI) are added into each well followed by 10 μl of 2 μM ATP. The reaction is performed until approx 50% of the ATP is depleted, and then stopped by the addition of 20 μl of Kinase-Glo solution (Promega Corp., Madison, Wis., USA). The stopped reaction is incubated for 5 minutes and the remaining ATP is then detected via luminescence. IC50 values are then determined.

PI3K delta = target: T2, PI3K delta (Homo sapiens, UniProt O00329); assay: Enzymatic PI3K delta isoform inhibition (lipid kinase activity, Kinase-Glo); type: biochemical; settings: enzymatic assay
T2 construct: for the full-length p110-d subunit are generated and fused by overlapping PCR; His tag (C); made in house; host or cells: baculovirus BV1060; Tn5 (Trichoplusia ni) or TiniPro insect cells
Method: as §1, §2, §3

T2 sequence (O00329 with tags, fused parts or gaps limits assumed, species assumed): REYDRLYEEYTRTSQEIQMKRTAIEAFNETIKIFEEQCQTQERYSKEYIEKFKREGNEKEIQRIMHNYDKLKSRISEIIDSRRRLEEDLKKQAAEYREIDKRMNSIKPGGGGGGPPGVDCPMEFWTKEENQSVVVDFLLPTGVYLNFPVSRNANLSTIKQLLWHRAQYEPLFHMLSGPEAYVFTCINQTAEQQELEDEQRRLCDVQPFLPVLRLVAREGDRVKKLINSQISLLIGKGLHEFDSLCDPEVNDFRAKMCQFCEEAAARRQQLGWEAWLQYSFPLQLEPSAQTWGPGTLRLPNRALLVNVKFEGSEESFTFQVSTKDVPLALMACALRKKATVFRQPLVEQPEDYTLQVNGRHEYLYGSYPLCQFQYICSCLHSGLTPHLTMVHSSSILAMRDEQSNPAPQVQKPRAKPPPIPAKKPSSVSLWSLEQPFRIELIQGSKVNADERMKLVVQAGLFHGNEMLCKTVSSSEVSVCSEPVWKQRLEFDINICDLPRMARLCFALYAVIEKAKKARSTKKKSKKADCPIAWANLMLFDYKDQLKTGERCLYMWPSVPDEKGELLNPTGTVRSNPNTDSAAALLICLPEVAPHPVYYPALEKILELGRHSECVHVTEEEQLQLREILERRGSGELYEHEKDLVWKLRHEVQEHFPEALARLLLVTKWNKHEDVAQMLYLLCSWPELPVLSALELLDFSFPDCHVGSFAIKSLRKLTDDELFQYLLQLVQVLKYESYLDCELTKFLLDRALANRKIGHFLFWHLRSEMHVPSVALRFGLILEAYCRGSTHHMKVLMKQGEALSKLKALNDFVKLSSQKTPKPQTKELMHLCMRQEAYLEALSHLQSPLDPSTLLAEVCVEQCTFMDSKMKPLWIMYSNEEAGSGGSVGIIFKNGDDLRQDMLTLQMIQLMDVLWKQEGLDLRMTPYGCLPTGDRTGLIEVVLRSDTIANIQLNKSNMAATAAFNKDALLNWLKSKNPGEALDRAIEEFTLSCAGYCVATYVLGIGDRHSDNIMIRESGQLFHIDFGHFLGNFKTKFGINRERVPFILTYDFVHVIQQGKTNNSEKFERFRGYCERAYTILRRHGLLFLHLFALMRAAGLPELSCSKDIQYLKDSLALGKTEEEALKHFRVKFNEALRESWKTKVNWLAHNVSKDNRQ
T1 sequence (P42336 with tags, fused parts or gaps limits assumed, species assumed): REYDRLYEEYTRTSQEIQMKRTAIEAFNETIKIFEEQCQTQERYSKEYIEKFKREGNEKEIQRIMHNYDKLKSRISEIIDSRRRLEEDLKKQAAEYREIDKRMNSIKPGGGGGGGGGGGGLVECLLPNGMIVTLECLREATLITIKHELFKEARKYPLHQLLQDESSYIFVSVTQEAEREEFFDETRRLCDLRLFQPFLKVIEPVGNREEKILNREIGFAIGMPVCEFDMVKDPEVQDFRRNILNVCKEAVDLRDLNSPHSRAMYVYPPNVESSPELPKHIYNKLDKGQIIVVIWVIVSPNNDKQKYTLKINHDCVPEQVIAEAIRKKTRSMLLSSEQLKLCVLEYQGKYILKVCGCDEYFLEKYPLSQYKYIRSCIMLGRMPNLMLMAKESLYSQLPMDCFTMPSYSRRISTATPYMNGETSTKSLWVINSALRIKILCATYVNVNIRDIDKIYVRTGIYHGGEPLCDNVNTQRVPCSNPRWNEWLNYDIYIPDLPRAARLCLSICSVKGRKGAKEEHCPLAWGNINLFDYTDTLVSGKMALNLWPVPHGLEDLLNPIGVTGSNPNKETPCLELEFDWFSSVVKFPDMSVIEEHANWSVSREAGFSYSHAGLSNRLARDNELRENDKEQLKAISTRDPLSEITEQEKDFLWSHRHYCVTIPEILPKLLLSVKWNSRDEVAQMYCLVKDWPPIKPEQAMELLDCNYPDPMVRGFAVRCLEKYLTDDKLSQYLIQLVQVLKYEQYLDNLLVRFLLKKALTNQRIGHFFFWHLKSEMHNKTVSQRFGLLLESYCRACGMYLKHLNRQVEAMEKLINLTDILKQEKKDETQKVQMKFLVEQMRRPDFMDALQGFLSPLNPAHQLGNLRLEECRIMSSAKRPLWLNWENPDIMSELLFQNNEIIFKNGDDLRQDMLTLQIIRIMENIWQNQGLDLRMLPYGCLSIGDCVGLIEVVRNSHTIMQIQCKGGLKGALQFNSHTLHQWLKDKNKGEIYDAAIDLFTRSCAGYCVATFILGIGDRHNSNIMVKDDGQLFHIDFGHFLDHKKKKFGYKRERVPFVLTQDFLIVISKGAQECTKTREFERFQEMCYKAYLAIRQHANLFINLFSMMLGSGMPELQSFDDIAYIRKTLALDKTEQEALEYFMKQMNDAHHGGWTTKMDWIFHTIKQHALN

IC50 (PI3K alpha) [nM]	IC50 (PI3K delta) [nM]	Compound
979	18	COc1ncc(-c2ccc3ncnc(-c4ccnc(C(=O)N5CCN(C(C)=O)CC5)c4)c3c2)cc1C#N [Example 113, 5-{4-[2-(4-Acetyl-piperazine-1-carbonyl)-pyridin-4-yl]-quinazolin-6-yl}-2-methoxy-nicotinonitrile]
2120	8	COc1ncc(-c2ccc3ncnc(-c4cc(C(=O)N5CCN(C(C)=O)CC5)cc(C(F)(F)F)c4)c3c2)cc1C#N [Example 103, 5-{4-[3-(4-Acetyl-piperazine-1-carbonyl)-5-trifluoromethyl-phenyl]-quinazolin-6-yl}-2-methoxy-nicotinonitrile]
646	5.5	COc1ccc(-c2ccc3ncnc(-c4cncc(C(=O)N5CCN(C)CC5)c4)c3c2)cc1C(F)(F)F [Example 58]
578	23.5	COc1ccc(-c2ccc3ncnc(-c4cncc(C(=O)N5CCCN(C)CC5)c4)c3c2)cn1 [Example 76, {5-[6-(6-Methoxy-pyridin-3-yl)-quinazolin-4-yl]-pyridine-3-yl}-(4-methyl-[1,4]-diazepan-1-yl)-methanone]
126	< 3	COc1ccc(-c2ccc3ncnc(-c4cccc(C(=O)N5CCN(CC(F)(F)F)CC5)c4)c3c2)cn1 [Example 87, {3-[6-(6-Methoxy-pyridin-3-yl)-quinazolin-4-yl]-phenyl}-[4-(2,2,2-trifluoro-ethyl)-piperazin-1-yl]-methanone]
880	8	COc1ncc(-c2ccc3ncnc(-c4cncc(C(=O)N5CCOCC5)c4)c3c2)cc1C#N [Example 69]
237	4.5	COc1ccc(-c2ccc3ncnc(-c4cccc(C(=O)N5CCN(C)C[C@@H]5C)c4)c3c2)cn1 [Example 99, ((S)-2,4-Dimethyl-piperazin-1-yl)-{3-[6-(6-methoxy-pyridin-3-yl)-quinazolin-4-yl]-phenyl}-methanone]
196	3.75	COc1ccc(-c2ccc3ncnc(-c4cccc(C(=O)N5CCCN(C)CC5)c4)c3c2)cn1 [Example 92, {3-[6-(6-Methoxy-pyridin-3-yl)-quinazolin-4-yl]-phenyl}-(4-methyl-[1,4]diazepan-1-yl)-methanone]
904	21	COc1ccc(-c2ccc3ncnc(-c4cncc(C(=O)N5CCNCC(F)(F)C5)c4)c3c2)cc1C(F)(F)F [Example 83, (6,6-Difluoro-[1,4]diazepan-1-yl)-{5-[6-(4-methoxy-3-trifluoromethyl-phenyl)-quinazolin-4-yl]-pyridin-3-yl}-methanone]
2320	49	COc1ncc(-c2ccc3ncnc(-c4ccnc(C(=O)N5CCN(C(C)=O)CC5)c4)c3c2)cn1 [Example 112, 1-(4-{4-[6-(2-Methoxy-pyrimidin-5-yl)-quinazolin-4-yl]-pyridine-2-carbonyl}-piperazin-1-yl)-ethanone]
888	42.5	COc1ccc(-c2ccc3ncnc(-c4ccc(C)c(C(=O)N5CCN(C)CC5)c4)c3c2)cn1 [Example 115, {5-[6-(6-Methoxy-pyridin-3-yl)-quinazolin-4-yl]-2-methyl-phenyl}-(4-methyl-piperazin-1-yl)-methanone]
720	7	COc1cc(C(=O)N2CCN(C(C)=O)CC2)cc(-c2ncnc3ccc(-c4cnc(OC)c(C#N)c4)cc23)c1 [Example 105, 5-{4-[3-(4-Acetyl-piperazine-1-carbonyl)-5-methoxy-phenyl]-quinazolin-6-yl}-2-methoxy-nicotinonitrile]
281	9	COc1ccc(-c2ccc3ncnc(-c4cccc(C(=O)N5CCOC(C)(C)C5)c4)c3c2)cn1 [Example 95, (2,2-Dimethyl-morpholin-4-yl)-{3-[6-(6-methoxy-pyridin-3-yl)-quinazolin-4-yl]-phenyl}-methanone]
181	5.75	COc1ccc(-c2ccc3ncnc(-c4cccc(C(=O)N5CC(C)NC(C)C5)c4)c3c2)cn1 (stereo not shown) [Example 90, (3,5-Dimethyl-piperazin-1-yl)-{3-[6-(6-methoxy-pyridin-3-yl)-quinazolin-4-yl]-phenyl}-methanone]
158	7	COc1ccc(-c2ccc3ncnc(-c4cc(C)cc(C(=O)N5CCN(C(C)=O)CC5)c4)c3c2)cn1 [Example 108, 1-(4-{3-[6-(6-Methoxy-pyridin-3-yl)-quinazolin-4-yl]-5-methyl-benzoyl}-piperazin-1-yl)-ethanone]
1710	31.5	COc1ncc(-c2ccc3ncnc(-c4cncc(C(=O)N5CCN(C)CC5)c4)c3c2)cn1 [Example 59]
505	6	COc1ncc(-c2ccc3ncnc(-c4cncc(C(=O)N5CCOC(C)(C)C5)c4)c3c2)cc1F [Example 63]
306	7	COc1ccc(-c2ccc3ncnc(-c4cncc(C(=O)N5CCOC(C)(C)C5)c4)c3c2)cn1 [Example 67]
793	7	COc1ccc(-c2ccc3ncnc(-c4cncc(C(=O)N5C[C@@H]6C[C@H]5CN6)c4)c3c2)cc1C(F)(F)F [Example 85, (1S,4S)-2,5-Diaza-bicyclo[2.2.1]hept-2-yl-{5-[6-(4-methoxy-3-trifluoromethyl-phenyl)-quinazolin-4-yl]-pyridin-3-yl}-methanone]

Second part, the molecule before the results:

Compound	IC50 (PI3K alpha) [nM]	IC50 (PI3K delta) [nM]
COc1ncc(-c2ccc3ncnc(-c4cccc(C(=O)N5CCN(C(C)=O)CC5)c4)c3c2)cn1 [Example 4]	1160	9
CCOc1ncc(-c2ccc3ncnc(-c4cccc(C(=O)N5CCN(C(C)=O)CC5)c4)c3c2)cn1 [Example 5]	1320	8.5
COc1ncc(-c2ccc3ncnc(-c4cncc(C(=O)N5CCN(C(C)=O)CC5)c4)c3c2)cc1C(F)(F)F [Example 54]	69	3
CCN(CC)S(=O)(=O)c1cc(-c2ccc3ncnc(-c4cccc(C(=O)N5CCN(C)CC5)c4)c3c2)ccc1OC [Example 23]	931	12.5
CN1CCN(C(=O)c2cccc(-c3ncnc4ccc(-c5ccc(N6CCCC6)nc5)cc34)c2)CC1 [Example 15]	1230	17
CN1CCN(C(=O)c2cccc(-c3ncnc4ccc(-c5ccc(S(N)(=O)=O)c(C(F)(F)F)c5)cc34)c2)CC1 [Example 46]	5300	23.5
COc1ncc(-c2ccc3ncnc(-c4cncc(C(=O)N5CCN(C(C)=O)CC5)c4)c3c2)cc1C#N [Example 53]	472	7
CNc1ncc(-c2ccc3ncnc(-c4cccc(C(=O)N5CCN(C)CC5)c4)c3c2)cc1C [Example 40, {3-[6-(5-Methyl-6-methylamino-pyridin-3-yl)-quinazolin-4-yl]-phenyl}-(4-methyl-piperazin-1-yl)-methanone]	270	3
COc1ccc(-c2ccc3ncnc(-c4cccc(C(=O)N5CCN(C)CC5)c4)c3c2)cc1S(=O)(=O)N1CCOCC1 [Example 21]	2270	14.5
CN1CCN(C(=O)c2cccc(-c3ncnc4ccc(-c5ccc(N6CCNCC6)nc5)cc34)c2)CC1 [Example 18]	1290	42.1
CCOc1ccc(-c2ccc3ncnc(-c4cccc(C(=O)N5CCN(C)C(C)(C)C5)c4)c3c2)cn1 [Example 27]	404	18.5
CN1CCN(C(=O)c2cccc(-c3ncnc4ccc(-c5ccc(N)nc5)cc34)c2)CC1 [Example 25]	184	7
COc1ncc(-c2ccc3ncnc(-c4cccc(C(=O)N5CCN(C(C)=O)CC5)c4)c3c2)cc1F [Example 3]	62	< 3
CC(=O)N1CCN(C(=O)c2cccc(-c3ncnc4ccc(-c5cc(C#N)c(N)c(C(F)(F)F)c5)cc34)c2)CC1 [Example 10]	> 9100	27
COc1ccc(-c2ccc3ncnc(-c4cccc(C(=O)N5CCN(C(C)=O)C(C)(C)C5)c4)c3c2)cn1 [Example 36, 1-(4-{3-[6-(6-Methoxy-pyridin-3-yl)-quinazolin-4-yl]-benzoyl}-2,2-dimethyl-piperazin-1-yl)-ethanone]	217	4.5
COc1ncc(-c2ccc3ncnc(-c4cccc(C(=O)N5CCOC(C)(C)C5)c4)c3c2)cn1 [Example 33]	639	12
CCOc1ccc(-c2ccc3ncnc(-c4cccc(C(=O)N5CCN(C)CC5)c4)c3c2)cn1 [Example 16]	695	12.5
COc1ccc(-c2ccc3ncnc(-c4cccc(C(=O)N5CCN(C)CC5)c4)c3c2)cc1C(F)(F)F [Example 20]	2480	24
CN1CCN(C(=O)c2cccc(-c3ncnc4ccc(-c5cncc(S(C)(=O)=O)c5)cc34)c2)CC1 [Example 24]	400	15
CN1CCN(C(=O)c2cccc(-c3ncnc4ccc(-c5ccc(OC(F)F)nc5)cc34)c2)CC1 [Example 13]	1330	34
COc1ccc(-c2ccc3ncnc(-c4cccc(C(=O)N5CCN(C)CC5)c4)c3c2)cc1C#N [Example 45]	1200	36.5
COc1ncc(-c2ccc3ncnc(-c4cccc(C(=O)N5CCN(C(C)=O)C(C)(C)C5)c4)c3c2)cc1C#N [Example 37]	426	4
